# Tests used:
# Assay type in all cases: cell-based
# human osteoclasts [1] = assay: TRAP staining, osteoclast number on bone slices; details: inhibitor 1 or 5 μM
# Method: (§1) Figure 6 CTSK inhibition in human osteoclasts. (a) Scheme of the process of maturation of osteoclasts (OCs) derived from human monocytes in the presence of RANKL and M-CSF. (b) Representative pictures of bone resorption after incubation with human OCs treated with vehicle or inhibitors for 10–14 days. Bone resorption was observed by a toluidine blue stain. Increased staining indicates a higher number of resorption pits and greater bone resorption. (c) Quantitative analysis of pit formation in bone slices after incubation with OC treated with GD20 or ODN (1, 5 μM) relative to vehicle treated slices. […] (e) Quantification of osteoclasts number on bone slices after inhibitor treatment, detected by TRAP staining. […] The activity of CTSK in the cells was detected by 2 h labeling with a pan-cathepsin activity-based probe, GB123, followed by a fluorescence scan of the SDS-PAGE detecting CTSK attached to the probe; the red arrow points to the bands of CTSK (above 25 kDa). […]
# Blood was taken in an aseptic nontouch technique from consented human volunteers that were bled from the median cubital vein using a 21G needle, by the Declaration of Helsinki. […] The whole bone slice was analyzed by generating a panoramic view of the slice using stitching of images taken with an 20× magnification. […] And again, bone slice slices were imaged as was described before and counted using ImageJ software. […]
# human osteoclasts [2] = assay: Bone resorption assay, pit formation on bone slices (toluidine blue); details: Osteoclast, compared to vehicle-treated OC
# Method: The selective blockage of cellular CTSK activity allowed us to assess the effect of the inhibitors on bone resorption induced by osteoclasts (OCs) as an important step toward therapeutic application in osteoporosis, bone metastases, and other diseases associated with excessive bone resorption. Human OCs were derived from CD14+ monocytes that were extracted from healthy donors’ blood and treated with M-CSF and RANKL, as described in Abdallah et al.[46] The OC were grown on cortical bone slices over 14 days in the presence of the CTSK inhibitors to evaluate the impact of inhibitors on bone resorption; see scheme (Figure 6a).
# as §1, with “(b) Representative pictures of bone resorption after incubation with human OCs treated with vehicle or inhibitors for 10–14 days. Bone resorption was observed by a toluidine blue stain. Increased staining indicates a higher number of resorption pits and greater bone resorption.” left out
# human osteoclasts [3] = assay: Cell viability assay (methylene blue); details: different concentrations, 48 h
# Method: […]
# Cell viability assay: U2-OS, U-87 MG, or enriched monocyte cells were grown at 37 0C with 5% of CO2 in the respective medium as described previously. Cells were seeded (1500 cells/well in 96 wells plate) one day before the incubation with indicated inhibitor s at various concentrations. After 48 h, cells were fixed, and viability was measured by quantita tive colorimetric assay using methylene blue according to the procedure reported by Ben -Bassat et al.9 The data were expressed as a percentage of control; data represent the mean of 2 experiments with triplicates for each treatment (± standard deviation).
# Figure S10. Cell viability assay. a) U2-OS and, b) U-87 MG were incubated with the different concentrations of indicated inhibitors. After a 48 h incubation cells were fixed, and viability was measured by methylene blue assay.The data were expressed as a percentage of control; data represent the mean of 2 experiments with triplicates for each treatment (± SD). Statistical differences were evaluated by two -tailed Student’s t -test from two independent experiments.
# Student’s t -test was non-significant except for samples indicated with *, P <0.05 and **, P <0.01. (c) Human osteoclasts were incubated with the different concentrations of indicated inhibitors. After a 48 h incubation cells were fixed, and viability was measured by methylene […]
# (also on this page, place not known: t-test non -significant t-test 0 20 40 60 80 100 120 (0.5 µM)(5 µM)(1 µM)(5 µM)(1 µM) (0.5 µM) ODNGD38GD38GD38GD20GD20GD20 (0.5 µM) Cell viability (% of control) Concentration of compound) […]
# (1 picture or pasted object on this page, not shown here)
smiles,measurement,setting,value
CC(C)C[C@H](N[C@@H](c1ccc(-c2ccc(S(C)(=O)=O)cc2)cc1)C(F)(F)F)C(=O)NCC(=O)COC(=O)[C@@H]1CCCN1C(=O)[C@H](CC(C)C)NC(=O)OCC1c2ccccc2-c2ccccc21 [GD20],osteoclast numbers on bone slices (TRAP),human osteoclasts [1],no significant alterations
same,inhibition at 5 µM,human osteoclasts [2],94 ± 1.57%
same,cell viability (% of control) vs control,human osteoclasts [3],no significant differences
CC(C)C[C@H](N[C@@H](c1ccc(-c2ccc(S(C)(=O)=O)cc2)cc1)C(F)(F)F)C(=O)NCC(=O)COC(=O)[C@@H]1CCCN1C(=O)[C@H](CCC(N)=O)NC(=O)OCC1c2ccccc2-c2ccccc21 [GD38],cell viability (% of control) vs control,human osteoclasts [3],no significant differences
"CC(C)(F)C[C@H](N[C@@H](c1ccc(-c2ccc(S(C)(=O)=O)cc2)cc1)C(F)(F)F)C(=O)NC1(C#N)CC1 [ODN, odanacatib, reference compound]",osteoclast numbers on bone slices (TRAP),human osteoclasts [1],increase
same,inhibition at 5 µM,human osteoclasts [2],93 ± 1.45%
same,cell viability (% of control) vs control,human osteoclasts [3],no significant differences

# Reference: PMC11938014, “Development and Application of Small Molecule–Peptide Conjugates as Cathepsin K-Specific Covalent Irreversible Inhibitors in Human Osteoclast and Lung Cancer” (JACS Au, 2025)
